Laboratory results: US10294212B2 (CURADEV PHARMA PRIVATE LTD., priority 2013, dated 2019)
Structures can show the parent of a compound that is named as a salt.

What was measured:
[1] = target: Human indoleamine 2,3-dioxygenase1 (hIDO1) (Homo sapiens (Human), UniProt P14902); experiment: In-vitro IDO1 enzyme assay (conversion of L-tryptophan to KYN); type: biochemical; settings: read-out: IC50 (IDO1) Enz
Excerpt: Human indoleamine 2,3-dioxygenasel (hIDO1) catalyzes the oxidative cleavage of the pyrrole ring of the indole nucleus of tryptophan to yield N-formylkynurenine which can be converted to kynurenine (KYN) by deformylation. hIDO1 with an N-terminal His tag, expressed and purified from E. coli cells was procured from either Enzo LifeScienccs, NY, USA). Unless otherwise stated, all materials were procured from Sigma Aldrich, Mo., USA.
The assay monitoring the conversion of L-tryptophan to KYN was carried out as follows. hIDO1 (10 nM) was incubated with tryptophan (30 μM) in the presence of ascorbic acid (20 mM), methylene blue (10 μM) and catalase (100 μg/mL) in potassium phosphate buffer (50 mM; pH 6.5) at 37C for 30 min. The reaction was terminated with 30% trichloroacetic acid (TCA) and further incubated at 65C for 15 min to fully convert N-formylkynurenine to KYN. The reaction mixture was then centrifuged to remove sediments and the KYN in the supernatant was estimated by UV-visible absorption spectroscopy at 360 nm using a Waters HPLC system fitted with a C-18 column or by LC/MS/MS. See, Sono, 1980, J. Biol. Chem., 255:1339-1345, which is herein incorporated by reference.
Percent inhibition at each concentration of test compounds was determined by estimating the decrease in KYN with reference to the reaction control with 1% DMSO vehicle. Data were analyzed using nonlinear regression to generate IC50 values using Graph Pad Prism® 5.

[2] = target: Human TDO (hTDO)-transfected CHO-K1 cells (Homo sapiens (Human), UniProt P48775); experiment: CHO-K1 cell based TDO assay; settings: hTDO cellular assay
Chain of Human TDO (hTDO)-transfected CHO-K1 cells (P48775 whole entry): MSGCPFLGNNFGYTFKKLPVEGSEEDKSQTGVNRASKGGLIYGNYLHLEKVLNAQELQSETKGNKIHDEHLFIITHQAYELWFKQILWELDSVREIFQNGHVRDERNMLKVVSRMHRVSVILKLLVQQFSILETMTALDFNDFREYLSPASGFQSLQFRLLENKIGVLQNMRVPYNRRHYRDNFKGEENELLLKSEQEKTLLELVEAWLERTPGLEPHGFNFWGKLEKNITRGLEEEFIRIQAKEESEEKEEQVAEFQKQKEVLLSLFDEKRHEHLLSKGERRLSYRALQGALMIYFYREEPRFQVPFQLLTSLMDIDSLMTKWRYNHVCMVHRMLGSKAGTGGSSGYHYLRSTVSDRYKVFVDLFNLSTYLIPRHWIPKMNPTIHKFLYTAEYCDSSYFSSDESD
Procedure: Human TDO (hTDO)-transfected CHO-K1 cells were used to identify test compounds that inhibit TDO activity and reduce Kynurenine production. CHO-K1 cells (ATCC) were cultured in DMEM supplemented with sodium bicarbonate (2.1 g/L), HEPES (4.1 g/L), L-glutamine (2 mM), non-essential amino acid (84 mg/L) and fetal bovine serum (10%) and maintained at 95% humidity and 5% CO2 in a 37° C. incubator. The TDO gene (TDO2) (Accession number NM_005651.1) was purchased from Origene (USA) and stably expressed in CHO-Kl cells using the expression vector pcDNA4/Myc-HisB Hygro (Life Technologies, USA). TDO-expressing clones were identified based on the kynurenine production by the cells. Expanded clones were used for assay as described below. Unless otherwise stated, all materials were procured from Sigma.
hTDO transfected CHO-K1 cells (0.05 million/well) were seeded in a 96-well plate and maintained overnight in DMEM containing 10% FBS (200 μL) at 95% humidity and 5% CO2 in a 37° C. incubator. The following day, cells were washed and incubated with test compounds (typically 31 μM to 10 nM, final volume 150 μL) in Hanks Balanced Salt Solution (HBSS) containing 80 μM L-tryptophan for 2 hours. Supernatant (150 μL) from the cells was treated with 30% TCA ([…]) to precipitate proteins. Supernatants were further incubated at 65° C. for 15 min to convert N-formylkynurenine to kynurenine. KYN in the supernatant was measured by LC/MS/MS using an API4000 mass spectrometer (Applied Biosystems) coupled to a Shimadzu Prominence LC system fitted with a C18 column.
Percent inhibition of the test compounds was determined by measuring the decrease in KYN as compared to the reaction control (DMSO vehicle). IC50 values were calculated using Graph Pad Prism® 5 as described above.

Chain of Human indoleamine 2,3-dioxygenase1 (hIDO1) (P14902 whole entry): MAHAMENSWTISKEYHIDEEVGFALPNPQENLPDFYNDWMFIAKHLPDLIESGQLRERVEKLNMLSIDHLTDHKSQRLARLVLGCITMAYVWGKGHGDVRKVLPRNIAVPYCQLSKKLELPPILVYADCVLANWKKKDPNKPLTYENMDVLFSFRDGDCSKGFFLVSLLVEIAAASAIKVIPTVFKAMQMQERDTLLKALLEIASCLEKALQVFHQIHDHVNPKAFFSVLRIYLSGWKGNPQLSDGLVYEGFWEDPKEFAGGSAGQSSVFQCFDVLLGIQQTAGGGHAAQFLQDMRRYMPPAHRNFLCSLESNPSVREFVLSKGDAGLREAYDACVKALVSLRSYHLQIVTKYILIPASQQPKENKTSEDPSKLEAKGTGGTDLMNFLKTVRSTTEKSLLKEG

Structure (SMILES)	IC50 [1] [nM]	IC50 [2] [nM]
Nc1oc2cnccc2c1Nc1cccc(C2CCCCC2)c1 [Compound 88, N^3-(3-Cyclohexylphenyl)furo[2,3-c]pyridine-2,3-diamine]	> 1000	500 to 2000
Nc1oc2cnccc2c1Nc1cccc(CC2CCC2)c1 [Compound 89, N^3-(3-(Cyclobutylmethyl)phenyl)furo[2,3-c]pyridine-2,3-diamine]	> 1000	> 2000
CC(C)Oc1cc2c(Nc3ccc(F)c(Cl)c3)c(N)oc2c(-c2ccccc2)n1 [Compound 107, N^3-(3-Chloro-4-fluorophenyl)-5-isopropoxy-7-phenylfuro[2,3-c]pyridine-2,3-diamine]	> 1000	> 2000
Nc1sc2cnccc2c1Nc1ccc(F)c(Cl)c1 [Compound 121, N^3-(3-chloro-4-fluorophenyl)thieno[2,3-c]pyridine-2,3-diamine]	> 1000	> 2000
Nc1sc2ccccc2c1Sc1cccc(Cl)c1 [Compound 122, 3-((3-Chlorophenyl)thio)benzo[b]thiophen-2-amine]	> 1000	> 2000
Nc1sc2ccccc2c1Oc1cccc(Cl)c1 [Compound 127, 3-(3-Chlorophenoxy)benzo[b]thiophen-2-amine hydrochloride]	> 1000	> 2000
Nc1sc2ccccc2c1Nc1ccc(F)c(C(F)(F)F)c1 [Compound 128, N^3-(4-Fluoro-3-(trifluoromethyl)phenyl)benzo[b]thiophene-2,3-diamine]	< 200	> 2000
[NH]c1sc2ccc(Cl)cc2c1Nc1ccc(F)c(C(F)(F)F)c1 [Compound 129, hydrochloride]	200 to 1000	> 2000
CN(c1ccccc1)c1c(N)sc2ccccc12 [Compound 135, N^3-Methyl-N^3-phenylbenzo[b]thiophene-2,3-diamine hydrochloride]	> 1000	> 2000
N#Cc1ccc2c(Nc3ccc(F)c(Cl)c3)c(N)sc2c1 [Compound 136, 2-Amino-3-((3-chloro-4-fluorophenyl)amino)benzo[b]thiophene-6-carbonitrile]	> 1000	> 2000
CCOC(=O)Nc1oc2cnccc2c1N(C(=O)OCC)c1ccc(F)c(Cl)c1 [Compound 142, Ethyl (3-chloro-4-fluorophenyl)(2-((ethoxycarbonyl)amino)furo-[2,3-c]pyridin-3-yl)carbamate]	> 1000	> 2000
COC(=O)Nc1oc2cnccc2c1Nc1ccc(F)c(Cl)c1 [Compound 143, Methyl (3-((3-chloro-4-fluorophenyl)amino)furo[2,3-c]pyridin-2-yl)carbamate]	> 1000	> 2000
COC(=O)Nc1oc2cnccc2c1N(C(=O)OC)c1ccc(F)c(Cl)c1 [Compound 144, Methyl (3-chloro-4-fluorophenyl)(2-((methoxycarbonyl)amino)furo[2,3-c]pyridin-3-yl)carbamate]	> 1000	> 2000
CCOC(=O)Nc1oc2c(C#N)nccc2c1N(C(=O)OCC)c1ccc(F)c(Cl)c1 [Compound 145, Ethyl (3-chloro-4-fluorophenyl)(7-cyano-2-((ethoxycarbonyl)amino)furo[2,3-c]pyridin-3-yl)carbamate]	> 1000	> 2000
CCOC(=O)Nc1oc2c(-c3cccc(C#N)c3)nccc2c1N(C(=O)OCC)c1ccc(F)c(Cl)c1 [Compound 146, Ethyl (3-chloro-4-fluorophenyl)(7-(3-cyanophenyl)-2-((ethoxycarbonyl)amino)furo[2,3-c]pyridin-3-yl)carbamate]	> 1000	> 2000
N#Cc1nccc2c(Nc3ccc(F)c(Cl)c3)c(NC(=O)OCc3ccccc3)oc12 [Compound 155, Benzyl (3-((3-chloro-4-fluorophenyl)amino)-7-cyanofuro[2,3-c]pyridin-2-yl)carbamate]	> 1000	500 to 2000
CCOC(=O)Nc1oc2c(I)nccc2c1N(C(=O)OCC)c1ccc(F)c(Cl)c1 [Compound 156, Ethyl (3-chloro-4-fluorophenyl)(2-((ethoxycarbonyl)amino)-7-iodofuro[2,3-c]pyridin-3-yl)carbamate]	> 1000	> 2000
CCOC(=O)Nc1oc2c(-c3ccc(C(N)=O)cc3)nccc2c1Nc1ccc(F)c(Cl)c1 [Compound 157, Ethyl (7-(4-carbamoylphenyl)-3-((3-chloro-4-fluorophenyl)amino)furo[2,3-c]pyridin-2-yl)carbamate]	> 1000	> 2000
CCOC(=O)Nc1oc2c(C#Cc3ccc(C(N)=O)cc3)nccc2c1N(C(=O)OCC)c1ccc(F)c(Cl)c1 [Compound 160, Ethyl (7-((4-carbamoylphenyl)ethynyl)-2-((ethoxycarbonyl)amino)furo[2,3-c]pyridin-3-yl)(3-chloro-4-fluorophenyl)carbamate]	> 1000	> 2000
CCOC(=O)Nc1oc2c(Br)nccc2c1N(C(=O)OCC)c1ccc(F)c(Cl)c1 [Compound 161, Ethyl (7-bromo-2-((ethoxycarbonyl)amino)furo[2,3-c]pyridin-3-yl)(3-chloro-4-fluorophenyl)carbamate]	> 1000	> 2000
CCOC(=O)Nc1oc2c(-c3ccccc3)nccc2c1Nc1ccc(F)c(Cl)c1 [Compound 162, Ethyl (3-((3-chloro-4-fluorophenyl)amino)-7-phenylfuro[2,3-c]pyridin-2-yl)carbamate]	> 1000	> 2000
CCOC(=O)Nc1oc2c(-c3cc(C)nc(C)c3)nccc2c1Nc1ccc(F)c(Cl)c1 [Compound 163, Ethyl (3-((3-chloro-4-fluorophenyl)amino)-7-(2,6-dimethylpyridin-4-yl)furo[2,3-c]pyridin-2-yl)carbamate]	> 1000	> 2000
CCOC(=O)Nc1oc2c(-c3cc(C)nc(C)c3)nccc2c1N(C(=O)OCC)c1ccc(F)c(Cl)c1 [Compound 165, Ethyl (3-chloro-4-fluorophenyl)(7-(2,6-dimethylpyridin-4-yl)-2-((ethoxycarbonyl)amino)furo[2,3-c]pyridin-3-yl)carbamate]	> 1000	> 2000
CCOC(=O)Nc1oc2c(-c3ccncc3)nccc2c1N(C(=O)OCC)c1ccc(F)c(C(F)(F)F)c1 [Compound 193, Ethyl (2-((ethoxycarbonyl)amino)-7-(pyridin-4-yl)furo[2,3-c]pyridin-3-yl)(4-fluoro-3-(trifluoromethyl)phenyl)carbamate]	> 1000	> 2000
CCOC(=O)Nc1oc2c(C#N)nccc2c1N(C(=O)OCC)c1ccc(F)c(C(F)(F)F)c1 [Compound 194, Ethyl (7-cyano-2-((ethoxycarbonyl)amino)furo[2,3-c]pyridin-3-yl)(4-fluoro-3-(trifluoromethyl)phenyl)carbamate]	> 1000	> 2000
CCOC(=O)Nc1sc2ccccc2c1Nc1ccc(F)c(Cl)c1 [Compound 209, Ethyl (3-((3-chloro-4-fluorophenyl)amino)benzo[b]thiophen-2-yl)carbamate]	> 1000	> 2000
Cc1cc(-c2nccc3c(Nc4ccccc4N4CCCCC4)c(N)oc23)ccn1 [Compound 242, 7-(2-Methylpyridin-4-yl)-N^3-(2-(piperidin-1-yl)phenyl)furo[2,3-c]pyridine-2,3-diamine]	> 1000	> 2000
Cc1cc(-c2cccc3c(Nc4ccccc4)c(N)sc23)ccn1 [Compound 265, 7-(2-Methylpyridin-4-yl)-N^3-phenylbenzo[b]thiophene-2,3-diamine]	< 200	500 to 2000
Cc1cc(-c2cccc3c(Nc4ccc(F)cc4)c(N)sc23)ccn1 [Compound 266, N^3-(4-Fluorophenyl)-7-(2-methylpyridin-4-yl)benzo[b]thiophene-2,3-diamine]	< 200	500 to 2000
